One experiment concerns P. falciparum 3D7. Particulars: cited from earlier work.
For a further experiment, the system named is HepG2. Further details: method as in Everson et al., 2021. Particulars: ref Everson et al., 2021, cited from earlier work.
The subject of experiment [1] is human fibroblast cell line. Details: method as in Everson et al., 2021. Particulars: ref Everson et al., 2021, cited from earlier work.
Experiment [2] relates to P. falciparum NF54 strain. Kind of experiment: In vitro anti-Plasmodium assay (parasite lactate dehydrogenase). The note with it: P. falciparum NF54 drug-sensitive strain, read-out: In vitro IC50 PfNF54. It is filed as cell-based. How it is done: In vitro anti-Plasmodial assays were conducted at the H3D testing centre at the University of Cape Town. All 15 commercially available compounds were evaluated for anti-Plasmodium activity using a parasite lactate dehydrogenase assay as a marker for parasite survival, as previously described by. Briefly, the parasites were synchronized at the ring stage using d-sorbitol in water. Approximately 2 mg/mL stock solutions of reference drugs, chloroquine and artesunate, were prepared in water and DMSO respectively then stored in -20°C. Test compounds and reference drugs were serially diluted to give 10 concentrations with a final volume of 100 μL in each well. Parasites were incubated in the presence of the compounds at 37°C under hypoxic conditions (4% CO2 and 3% O2 in N2) for 72 h. The absorbance was measured at 620 nm on a microplate reader. Survival was plotted against concentration and the IC50-values were obtained using a non-linear dose-response curve fitting analysis via the Dotmatics software platform.

In the next experiment the target is PfHsp90-NTD (Plasmodium falciparum, UniProt Q8IC05). Kind of experiment: Surface plasmon resonance (MP-SPR) binding to immobilized PfHsp90-NTD. How it is done:
The NTD of PfHsp90 was expressed and purified as described in [29] and 20μg/ml of the protein was used to study the binding affinities of selected ligands using BioNavis Navi 420A ILVES multi-parametric surface plasmon resonance (MP-SPR) system (BioNavis, Finland) as previously described. Briefly, PfHsp90-NTD was immobilized to a Carboxymethyl dextran coated sensor slide (BioNavis SPR102- CMD-3D). The sensor slide was activated with 0.1 M EDC/0.05 M NHS. At pH 5, PfHsp90-NTD suspended in 5 mM of sodium acetate was immobilized on one channel of the 3 CMD chip. 1 M ethanolamine HCl was used to deactivate the chip by removing excess NHS = EDC, and the sensor cleaned with NaCl/NaOH unspecific binding molecules. Varying concentrations (0-2000/5000 nM) of compounds FTN-T2 and FTN-T5 were injected and introduced to the flow cell, allowing binding to the surface. Data Viewer (BioNavis, Finland) and Trace Drawer software version 1.8 (Ridgeview instruments, Uppsala, Sweden) were used to process and analyze the steady-state equilibrium constant data and estimate the binding affinities.

The test system of experiment [3] is hepatocellular carcinoma (HepG2). Description: In vitro cytotoxicity, MTT assay, HepG2 cells. It is filed as cell-based, human. The note with it: for IC50: HepG2 cells, MTT, 48 h; for HepG2 (SI): selectivity index, HepG2 vs PfNF54. How it is done:
(§1) Selectivity of the compounds for the parasites was determined using two cytotoxicity assays both of which were conducted at the H3D Centre. Compounds were screened against the mammalian cells, Chinese Hamster Ovarian (CHO) and hepatocellular carcinoma (HepG2), using the 3-(4,5-dimethylthiazol-2-yl)-2,5-diphenyltetrazoliumbromide (MTT) assay. Cells were plated to a density of 10^5 cells/well in 96-well plates and allowed to attach for 24h. After that compounds were added at various concentrations from 50μM to 16nM and the cells incubated for a further 48h. Emetine was used as the control. After that MTT was added and plates were read 4h later. ‘‘Survival” was plotted against concentration and the IC50-values were obtained using a non-linear dose-response curve fitting analysis via the Dotmatics software platform.

Experiment [4] has as its system Chinese Hamster Ovarian (CHO) cells. Kind of experiment: In vitro cytotoxicity, MTT assay, CHO cells. The experiment is classed as cell-based. The note with it: for IC50: CHO cells, MTT, 48 h, read-out: In vitro IC50 Mammalian cells; for Mammalian cells (SI): selectivity index, CHO vs PfNF54. How it is done:
as §1

The next experiment deals with Plasmodium. Particulars: known inhibitor; ref (11); read-out: anti-Plasmodium IC50; cited from earlier work.
Where [5] appears, read: P. falciparum 3D7, chloroquine-sensitive strain, ref Everson et al., 2021, read-out: In vitro IC50 Pf3D7.
The mark [6] stands for this setting: Plasmodium falciparum, NF54, 72 h.

Values joined by “and” are separate entries in the source; they are usually repeats but may differ in a detail not shown here. Equal entries are not always repeated. Where two headings read alike, the source gives them in different places.

PfHsp90-NTD, sequence (Q8IC05 entry or part of it): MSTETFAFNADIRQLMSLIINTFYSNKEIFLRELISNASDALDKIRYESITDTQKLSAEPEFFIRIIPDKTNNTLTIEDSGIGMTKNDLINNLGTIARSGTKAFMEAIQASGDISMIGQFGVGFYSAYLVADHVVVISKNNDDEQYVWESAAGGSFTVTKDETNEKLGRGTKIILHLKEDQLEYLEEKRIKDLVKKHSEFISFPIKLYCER

With `O=C(NCc1ccc2c(c1)OCO2)C1CCN(c2ncnc3onc(-c4cccc(F)c4)c23)CC1` [Compound 7], in the experiment with P. falciparum 3D7 (setting [5]), the IC50 is 0.98 ± 0.654 µM.
For the compound `O=C(N[C@H]1CCc2ccccc21)C1CCN(c2ncccc2-c2nc(-c3ccccc3)no2)CC1` [Compound 10], the IC50 in the experiment with P. falciparum 3D7 (setting [5]) was 1.11 ± 0.97 µM; in the experiment with HepG2 (HepG2, read-out: In vitro IC50 HepG2), greater than 24 µM; in experiment [1] (human fibroblast cell line, read-out: In vitro IC50 Mammalian cells) it was greater than 24 µM. The “HepG2 (SI)” value in the experiment on HepG2 (selectivity index) is recorded as greater than 21. For the same compound, the “Mammalian cells (SI)” value in experiment [1] (selectivity index) is on record as greater than 21.
As to `Nc1ncnc2c1nc(Br)n2[C@@H]1O[C@H](CO)[C@@H](O)[C@H]1O` [FTN-T2], the IC50 in experiment [2] (setting [6]) was 4.49 ± 1.51 µM; in experiment [3] (Homo sapiens) it was 1.5 µM; in experiment [4] (Cricetulus griseus) it was greater than 50 µM. Also, on PfHsp90-NTD (SPR, immobilized PfHsp90-NTD, read-out: equilibrium constant denoting affinity KD), the equilibrium dissociation constant (Kd) is 0.007 µM and 0.00711 µM. Moreover, in experiment [3], the “HepG2 (SI)” value was determined as 0.
As to `Cn1c(=O)ccn([C@@H]2O[C@H](CO)[C@@H](O)[C@H]2O)c1=O` [FTN-T5], the IC50 in experiment [2] (72 h) was 1.44 ± 0.5 µM; in experiment [2] (setting [6]), less than 1.5 µM; in experiment [3] (Homo sapiens), 42.3 µM; in experiment [4] (Cricetulus griseus), greater than 50 µM. Moreover, the Kd at PfHsp90-NTD (read-out: equilibrium constant denoting affinity KD) was 0.0199 µM and 0.019 µM. The “selectivity index (SI)” value in experiment [3] (HepG2/CHO cells vs PfNF54) is no less than 29. The “HepG2 (SI)” value in experiment [3] is on record as 29. Further, the “average SI” value in experiment [4] (CHO and HepG2 cell lines) is on record as no less than 30. Further, the “Mammalian cells (SI)” value in experiment [4] was greater than 35.
On to `Nc1nc2c(ncn2[C@H]2C[C@H](F)[C@@H](CO)O2)c(=O)[nH]1` [FTN-T9], for which the IC50 in experiment [2] (72 h) was 4.86 ± 1.14 µM. Moreover, in experiment [3], the IC50 was greater than 50 µM and the “HepG2 (SI)” value is given as greater than 10. In addition, in experiment [4], the IC50 is greater than 50 µM and the “Mammalian cells (SI)” value was greater than 10.
With `COC1=C2C[C@@H](C)C[C@H](OC)[C@H](O)[C@@H](C)/C=C(\C)[C@H](OC(N)=O)[C@@H](OC)/C=C\C=C(/C)C(=O)NC(=CC1=O)C2=O` [Geldanamycin, geldanamycin], in the experiment with Plasmodium, the IC50 is 0.02 µM.
For `COc1ccc2c(c1)[nH]c1c(C)nccc12` [Harmine, reference compound], on PfHsp90-NTD (equilibrium constant denoting affinity KD, SPR, immobilized PfHsp90-NTD), the Kd was determined as 0.0182 µM. In addition, the IC50 in the experiment on P. falciparum 3D7 (P. falciparum, ref Shahinas et al., 2010, read-out: In vitro IC50 PfNF54/ Pf3D7) was 0.05 µM.

Source of the values: paper PMC11588265, “Auto QSAR-based active learning docking for hit identification of potential inhibitors of Plasmodium falciparum Hsp90 as antimalarial agents” (PLOS ONE, 2024).
